Consider 17 compounds from ChEMBL document CHEMBL1136955, “Compelling P1 substituent affect on metalloprotease binding profile enables the design of a novel cyclohexyl core scaffold with excellent MMP selectivity and HER-2 sheddase inhibition” (Bioorg Med Chem Lett, 2009).

Assay [1] addresses 72 kDa type IV collagenase (Homo sapiens, UniProt P08253). Kind of assay: Inhibition of human MMP2.
In assay [2] the target is T1, Disintegrin and metalloproteinase domain-containing protein 10 (Homo sapiens, UniProt O14672).
T1 sequence (O14672 whole entry): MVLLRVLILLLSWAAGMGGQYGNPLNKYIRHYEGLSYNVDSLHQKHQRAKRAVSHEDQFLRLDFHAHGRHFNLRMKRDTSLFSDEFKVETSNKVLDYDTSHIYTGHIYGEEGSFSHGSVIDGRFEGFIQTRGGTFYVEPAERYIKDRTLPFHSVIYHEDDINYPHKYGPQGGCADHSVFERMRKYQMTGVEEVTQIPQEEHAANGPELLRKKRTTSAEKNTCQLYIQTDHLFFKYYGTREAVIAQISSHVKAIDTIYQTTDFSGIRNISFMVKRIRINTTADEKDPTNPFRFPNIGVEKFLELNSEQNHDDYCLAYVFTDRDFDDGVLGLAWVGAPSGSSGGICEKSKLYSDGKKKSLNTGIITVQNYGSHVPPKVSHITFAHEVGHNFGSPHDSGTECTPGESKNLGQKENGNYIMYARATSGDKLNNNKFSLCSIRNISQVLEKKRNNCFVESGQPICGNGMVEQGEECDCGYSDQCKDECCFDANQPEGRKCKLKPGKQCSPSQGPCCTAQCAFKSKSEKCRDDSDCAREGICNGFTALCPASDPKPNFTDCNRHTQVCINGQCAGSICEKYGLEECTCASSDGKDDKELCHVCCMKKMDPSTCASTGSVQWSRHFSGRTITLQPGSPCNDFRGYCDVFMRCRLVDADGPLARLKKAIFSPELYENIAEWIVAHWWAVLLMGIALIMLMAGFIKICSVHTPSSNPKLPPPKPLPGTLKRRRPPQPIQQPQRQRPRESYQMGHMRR
Kind of assay: Inhibition of human recombinant ADAM10.

The target of a further assay is T2, Interstitial collagenase (Homo sapiens, UniProt P03956).
T2 sequence (P03956 whole entry): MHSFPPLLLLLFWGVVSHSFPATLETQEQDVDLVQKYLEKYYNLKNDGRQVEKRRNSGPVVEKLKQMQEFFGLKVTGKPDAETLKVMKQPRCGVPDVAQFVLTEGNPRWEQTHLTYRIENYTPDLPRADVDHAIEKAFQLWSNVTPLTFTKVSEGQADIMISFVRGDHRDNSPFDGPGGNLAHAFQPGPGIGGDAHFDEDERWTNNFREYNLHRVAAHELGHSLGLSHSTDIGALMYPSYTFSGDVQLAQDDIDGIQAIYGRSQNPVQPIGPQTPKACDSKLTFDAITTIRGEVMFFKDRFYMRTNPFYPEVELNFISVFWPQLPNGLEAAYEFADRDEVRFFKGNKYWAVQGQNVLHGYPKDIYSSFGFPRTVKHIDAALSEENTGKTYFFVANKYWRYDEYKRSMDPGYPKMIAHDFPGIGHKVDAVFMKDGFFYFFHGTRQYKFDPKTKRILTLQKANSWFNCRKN
Kind of assay: Inhibition of human MMP1.

The target of assay [3] is Matrix metalloproteinase-9 (Homo sapiens, UniProt P14780). The experiment in a line: Inhibition of human MMP9.
The next assay addresses Stromelysin-1 (Homo sapiens, UniProt P08254). The experiment in a line: Inhibition of human MMP3.
Another assay is filed under the species Homo sapiens. Kind of assay: Selectivity ratio of IC50 for human MMP2 to IC50 for human ADAM10.

Chain of Stromelysin-1 (P08254 whole entry): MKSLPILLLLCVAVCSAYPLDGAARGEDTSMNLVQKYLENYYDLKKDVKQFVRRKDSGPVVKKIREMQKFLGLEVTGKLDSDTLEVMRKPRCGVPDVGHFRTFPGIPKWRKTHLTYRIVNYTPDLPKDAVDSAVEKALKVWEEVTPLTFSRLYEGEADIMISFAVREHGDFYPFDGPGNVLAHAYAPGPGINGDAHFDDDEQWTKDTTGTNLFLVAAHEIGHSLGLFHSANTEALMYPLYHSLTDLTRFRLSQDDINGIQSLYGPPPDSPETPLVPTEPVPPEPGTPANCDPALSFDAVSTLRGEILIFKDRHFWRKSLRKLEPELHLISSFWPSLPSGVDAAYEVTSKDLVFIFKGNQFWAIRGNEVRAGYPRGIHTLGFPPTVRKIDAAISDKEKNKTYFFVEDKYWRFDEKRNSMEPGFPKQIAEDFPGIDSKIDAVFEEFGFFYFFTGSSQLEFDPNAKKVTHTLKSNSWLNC
Chain of 72 kDa type IV collagenase (P08253 whole entry, the tested form may be a part): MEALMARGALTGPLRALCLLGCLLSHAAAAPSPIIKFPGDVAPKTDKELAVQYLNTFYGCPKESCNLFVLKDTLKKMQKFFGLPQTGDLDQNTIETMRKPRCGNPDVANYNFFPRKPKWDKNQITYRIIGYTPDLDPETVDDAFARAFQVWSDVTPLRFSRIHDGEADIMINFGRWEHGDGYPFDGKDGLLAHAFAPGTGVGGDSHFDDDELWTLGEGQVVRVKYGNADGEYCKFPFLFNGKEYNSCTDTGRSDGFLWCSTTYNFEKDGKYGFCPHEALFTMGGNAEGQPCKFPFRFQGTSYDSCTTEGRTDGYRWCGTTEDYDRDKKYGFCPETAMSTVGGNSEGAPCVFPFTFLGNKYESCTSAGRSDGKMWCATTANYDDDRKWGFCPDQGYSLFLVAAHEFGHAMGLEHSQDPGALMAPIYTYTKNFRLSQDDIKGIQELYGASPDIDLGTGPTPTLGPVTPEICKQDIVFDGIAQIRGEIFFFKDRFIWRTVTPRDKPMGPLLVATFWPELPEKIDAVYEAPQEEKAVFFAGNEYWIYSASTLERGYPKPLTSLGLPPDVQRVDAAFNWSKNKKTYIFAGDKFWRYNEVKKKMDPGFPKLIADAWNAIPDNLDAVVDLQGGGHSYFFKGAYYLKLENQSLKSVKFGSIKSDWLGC
Chain of Matrix metalloproteinase-9 (P14780 whole entry): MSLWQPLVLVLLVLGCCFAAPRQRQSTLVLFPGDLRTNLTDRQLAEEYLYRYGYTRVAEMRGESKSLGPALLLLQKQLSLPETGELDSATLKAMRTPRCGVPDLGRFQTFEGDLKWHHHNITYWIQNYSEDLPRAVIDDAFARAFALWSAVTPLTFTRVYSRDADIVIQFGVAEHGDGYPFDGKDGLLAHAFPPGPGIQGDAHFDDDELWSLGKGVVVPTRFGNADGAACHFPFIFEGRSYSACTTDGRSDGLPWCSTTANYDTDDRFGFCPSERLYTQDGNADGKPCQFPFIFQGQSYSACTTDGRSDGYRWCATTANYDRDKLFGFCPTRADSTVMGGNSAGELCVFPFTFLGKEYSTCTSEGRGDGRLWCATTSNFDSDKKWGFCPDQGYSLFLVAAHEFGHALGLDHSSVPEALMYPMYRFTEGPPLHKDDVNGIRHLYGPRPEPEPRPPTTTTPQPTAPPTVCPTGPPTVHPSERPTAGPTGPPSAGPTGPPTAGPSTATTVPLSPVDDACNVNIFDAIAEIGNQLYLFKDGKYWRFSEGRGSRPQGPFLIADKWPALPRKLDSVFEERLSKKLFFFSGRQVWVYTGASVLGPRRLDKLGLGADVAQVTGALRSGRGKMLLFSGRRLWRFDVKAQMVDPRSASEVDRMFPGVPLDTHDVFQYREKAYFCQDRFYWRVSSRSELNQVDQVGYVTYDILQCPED

The IC50 is the midpoint of a concentration-inhibition curve. Compound `O=C(NO)[C@H]1C[C@H](CC(=O)N2CCCCC2)CC[C@@H]1C(=O)N1CCN(c2ccccc2)CC1` showed a concentration for half-maximal inhibition (IC50) in assay [1] of 1090 nM.
Take `O=C(NO)[C@H]1CC(CC(=O)N2CCCC2)CN[C@@H]1C(=O)N1CCN(c2ccccc2)CC1` (mixture of isomers): the concentration for half-maximal inhibition (IC50) came to 8 nM in assay [1] and 19 nM in assay [2].
For the compound `O=C(NO)[C@H]1CC(CC(=O)N2CC[C@@H](O)C2)CC[C@@H]1C(=O)N1CCN(c2ccccc2)CC1` (mixture of isomers), the half-inhibitory concentration (IC50) was 156 nM in assay [1] and 111 nM in assay [2].
With `NCCCCCNC(=O)CC1CN[C@H](C(=O)N2CCC(c3ccccc3)C2)[C@@H](C(=O)NO)C1` (mixture of isomers), the IC50 is over 5000 nM at Interstitial collagenase; 1660 nM in assay [1]; over 5000 nM in assay [3]; over 5000 nM on Stromelysin-1; 161 nM in assay [2].
On to `O=C(NO)[C@H]1CCCC[C@@H]1C(=O)N1CCN(c2ccccc2)CC1`, for which the IC50 was over 5000 nM on Interstitial collagenase, 180 nM in assay [1] and 1540 nM in assay [2].
In the case of `O=C(NO)[C@H]1CC(CC(=O)N2CCCC2)CC[C@@H]1C(=O)N1CCN(c2ccccc2)CC1` (mixture of isomers), the IC50 on Interstitial collagenase was over 5000 nM; in assay [1] it was 271 nM; in assay [3], 1440 nM; on Stromelysin-1, over 5000 nM; in assay [2], 64 nM.
Turning to `O=C(NO)[C@H]1CC(CC(=O)N2CCOCC2)CC[C@@H]1C(=O)N1CCN(c2ccccc2)CC1` (some centres undefined), the IC50 in assay [1] stood at 236 nM; in assay [2], 83 nM.
`O=C(NO)[C@H]1CC2(CC2)CN[C@@H]1C(=O)N1CCC(c2ccccc2)C1` (some centres undefined): the results for the IC50 (in assay [1]; in assay [3]; on Stromelysin-1) were 998 nM, over 5000 nM and over 5000 nM, respectively.
As to `O=C(NO)[C@H]1CC2(CC[C@@H]1C(=O)N1CCN(c3ccccc3)CC1)CC2` (mixture of isomers), the IC50 is over 5000 nM at Interstitial collagenase; 106 nM in assay [1]; 577 nM in assay [3]; over 5000 nM against Stromelysin-1; 196 nM in assay [2]. Besides, the Ratio IC50 in the assay listed under Homo sapiens stood at 2.
For the compound `O=C(NO)[C@H]1C[C@@H](CC(=O)N2CCCCC2)CC[C@@H]1C(=O)N1CCN(c2ccccc2)CC1`, the IC50 on Interstitial collagenase was over 5000 nM; in assay [1], 100 nM; in assay [3], 683 nM; at Stromelysin-1, over 5000 nM; in assay [2] it was 15 nM.
`CN1CCN(C(=O)CC2CC[C@H](C(=O)N3CCN(c4ccccc4)CC3)[C@@H](C(=O)NO)C2)CC1` (mixture of isomers): the 50% inhibitory concentration (IC50) is over 5000 nM on Interstitial collagenase; 68 nM in assay [1]; 2500 nM in assay [3]; over 5000 nM on Stromelysin-1; 30 nM in assay [2].
Regarding `O=C(NO)[C@H]1CC(CC(=O)N2CCCCC2)CC[C@@H]1C(=O)N1CCN(c2ccccc2)CC1` (mixture of isomers), the half-inhibitory concentration (IC50) was over 5000 nM against Interstitial collagenase, 321 nM in assay [1], 1880 nM in assay [3] and over 5000 nM against Stromelysin-1.
On to `CN1CC(CC(=O)N2CCCC2)C[C@H](C(=O)NO)[C@H]1C(=O)N1CCN(c2ccccc2)CC1` (mixture of isomers), for which the IC50 is 92 nM in assay [1] and 167 nM in assay [2].
With `CC(C)c1cccc(C2CCN(C(=O)[C@H]3CC[C@H](CC(=O)N4CCCCC4)C[C@@H]3C(=O)NO)CC2)c1`, the half-inhibitory concentration (IC50) on Interstitial collagenase is over 5000 nM; in assay [1], over 5000 nM; in assay [3], over 5000 nM; against Stromelysin-1, over 5000 nM; in assay [2], 21 nM.
For the compound `CN1CC(CC(=O)N2CCCCC2)C[C@H](C(=O)NO)[C@H]1C(=O)N1CCN(c2ccccc2)CC1` (mixture of isomers), the figures for the half-inhibitory concentration (IC50) in assay [1] and in assay [2] were 81 nM and 77 nM, respectively.
`CC(C)c1cccc(C2CCN(C(=O)[C@H]3CC[C@@H](CC(=O)N4CCCCC4)C[C@@H]3C(=O)NO)CC2)c1`: the IC50 was over 5000 nM in assay [1] and 915 nM in assay [2].
Consider `O=C(CC1CN[C@H](C(=O)N2CCC(c3ccccc3)C2)[C@@H](C(=O)NO)C1)NCCCCCNC(=O)OCc1ccccc1` (mixture of isomers), for which the IC50 on Interstitial collagenase is over 5000 nM; in assay [1], 1280 nM; in assay [3] it was 1790 nM; on Stromelysin-1 it was 5000 nM; in assay [2] it was 302 nM.
